Test results from patent US11161864B2, “Sting agonists” (Venenum Biodesign, LLC, priority 2018, dated 2021).

Experiments:
MC-38 tumor [1] = test: Treatment of MC-38 tumors with Example 1C and radiotherapy; type: in vivo, C57BL/6J mice; details: for #Tumor Free Mice after Treatment: 10 animals/group
Excerpt: Tumors grew for 7 days to an average size of 100 mm^3. […] On Days −2, −1 and 0 received 5 Gy of radiation targeted to the tumor using the Small Animal Radiation Research Platform (SARRP) manufactured by Xstrahl Inc. Radiotherapy treatments were given according to the outline in Table 18. […] Radiotherapy treatments were given according to the outline in Table 19.

[2] = target: wild-type (WT) truncated human STING protein, amino acids 155-379 (Homo sapiens (Human), UniProt Q86WV6, H232R); test: Human WT STING [3H] 2′,3′-cGAMP scintillation proximity competition binding assay; details: read-out: Human WT Binding IC50
Excerpt: (§1) A human STING [^3H] 2′,3′-cGAMP scintillation proximity competition binding assay was utilized to detect binding of compounds to STING protein. […] The protein encoding plasmid contained a HIS tag, followed by an Avi tag and then a SUMO tag, which were followed by the STING coding sequence within the pET-28a (+) vector. The plasmid was transfected into a BL21 (DE3)/BirA E. coli co-expression strain. Protein was purified from the bacterial lysate using a cobalt-affinity column. The purified protein was dialyzed against PBS and then 20% glycerol was added prior to storage at −80° C.
(§2) 2′,3′-cGAMP in assay buffer (50 mM Tris pH 7.5, 100 mM NaCl, 0.1% Fatty Acid Free BSA). Test compounds (2.5 μL) were added to the plate first followed by a 25 μL mixture of STING protein, streptavidin PVT SPA beads (Perkin Elmer) and 10 μL [^3H] 2′,3′-cGAMP. Plates were incubated at room temperature for 18 hrs and read on a Wallac MicroBeta TriLux (Perkin Elmer).

[3] = tested on: STING pathway, THP1 cells; test: Human IFN-α/β induction assay (THP1 supernatants on HEK-Blue IFN-α/β reporter cells); type: cell-based; details: THP1 cells 5 hrs, HEK-Blue reporter cells 24 hrs
Procedure: Genetically engineered human type-1 Interferons (IFN-α/β) sensor cells-HEK Blue™ IFNα/β cells (Invivogen) were employed to measure the type-1 IFNs produced by THP1 cells that are treated with activators of STING. The human embryonic (HEK) Blue™ cells are specially designed to monitor the activation of JAK/STAT pathway induced by type 1 IFNs. Briefly, THP1 cells are treated with compounds for 5 hrs. In the second step, supernatants of THP1 cells are transferred to HEK Blue™ IFNα/β reporter cells and incubated for 24 hrs. The secreted embryonic alkaline phosphatase (SEAP) activity in the supernatants of HEK blue IFNα/3 reporter cells is measured and used to determine the quantities of IFNs.
HEK-Blue IFN-α/β reporter cells (Invivogen) were used to measure the secretion of IFN-α/β into culture supernatants of THP1 cells following STING pathway activation. In the first step, THP1 cells were cultured in presence of STING activators for 5 hrs at 37° C., in a 5% CO2 tissue culture incubator, which facilitates the release of IFN-α/β into the supernatants. In the second step, cell supernatants from THP1 cells were transferred to HEK-Blue IFN-α/β reporter cells and incubated at 37° C., in a 5% CO2 incubator for 24 hrs. HEK-Blue IFN-α/β reporter cells are specifically designed to monitor the activation of JAK-STAT pathway activation by type 1 IFNs. These cells express a secreted embryonic alkaline phosphatase (SEAP) reporter gene under the control of ISG54 promoter, which is a well-known interferon stimulatory gene activated by type 1 IFNs. Upon IFN-α/β stimulation, HEK-Blue IFN-α/β reporter cells activate the JAK-STAT pathway and subsequently the expression of the reporter gene. SEAP which is secreted in the supernatant is easily detectable using alkaline phosphatase detection medium (Quanti-Blue reagent from Invivogen).
These assays were run by adding 2 μL of compound stock solution to tissue culture treated 384-well plates with electronic pipettes. Compounds were diluted in autoclaved sterile water, initially spotted on the intermediate dilution plate and then to the assay plate. […]

[4] = target: human STING (G230A-R293Q) (Homo sapiens (Human), UniProt Q86WV6, G230A/H232R/R293Q); test: Thermal shift binding assay, human STING (AQ); details: 100 μM compound, 5 μM STING protein; read-out: Human STING(AQ) Tm Shift
[5] = target: AQ variant of truncated human STING protein, amino acids 155-379 (Homo sapiens (Human), UniProt Q86WV6, G230A/H232R/R293Q); test: Human AQ STING [3H] 2′,3′-cGAMP scintillation proximity competition binding assay; details: read-out: Human AQ Binding IC50
Excerpt: as §1, §2

mouse STING = mouse STING (Mus musculus (Mouse), UniProt Q3TBT3); test: Thermal shift binding assay, mouse STING; details: 100 μM compound, 5 μM STING protein; read-out: Mouse STING Tm Shift
CT-26 tumor = CT-26 tumor bearing mice, intra-tumoral treatment and re-challenge; details: for Number of surviving mice: 50 μg intra-tumoral Days 0, 3, 7; for Number of surviving mice in the re-challenge: mice with complete regression after 50 μg, re-challenged with CT-26, no further treatment
MC-38 tumor [6] = test: MC-38 tumor bearing mice treated with Example 1C and anti-PD-1
[7] = tested on: STING pathway genes, THP1 Dual (HAQ) human cells; test: qRT-PCR assay, THP1 Dual (HAQ) human cells; type: cell-based
human STING (WT) = human STING (WT) (Homo sapiens (Human), UniProt Q86WV6, H232R); test: Thermal shift binding assay, human STING (WT); details: 100 μM compound, 5 μM STING protein; read-out: Human STING(WT) Tm Shift
MC-38 tumor [8] = test: MC-38 tumor bearing mice treated with Example 1C and anti-PD-1, anti-PD-L1, anti-CTLA4; type: in vivo, C57BL/6J mice; details: for #Tumor Free Mice after Treatment: 10 animals/group
Excerpt: The animals were terminated when the tumor size reached 2,000 mm^3.

human STING (R232H) = human STING (R232H) (Homo sapiens, UniProt Q86WV6); test: Thermal shift binding assay, human STING (R232H); details: 100 μM compound, 5 μM STING protein; read-out: Human STING(R232H) Tm Shift
[9] = tested on: STING signaling, RAW-Dual reporter cells; test: Measurement of mouse IFN-β (ELISA); type: cell-based; details: Mus musculus, […]
Excerpt: Mouse Interferon-β (IFN-β) in the supernatants of murine macrophages treated with STING activators was quantified using sandwich enzyme linked immunosorbent assay (ELISA). Briefly, IFN-β binds to plates coated with antibody and detection is accomplished using a detection antibody followed by streptavidin conjugated to horseradish peroxidase. Tetramethyl-benzidine is used as the substrate in this kit (PBL Assay Science). […] In this invention, mouse IFN-β ELISA is used to determine the potency of compound on STING pathway activation in mouse macrophages.
Murine macrophage derived cell line RAW-Dual reporter cells (Invivogen) were used to measure the IFN-β produced by STING signaling activation. Briefly, 20,000 cells in 27 μL were seeded into tissue culture treated 384-well plate that contained 3 μL of test compound. Cells were incubated at 37° C., in a 5% CO2 incubator for 5.5 hours. Supernatants from treated cells were diluted 20-fold and prior to measurement of IFN-β levels using ELISA kit (PBL Assay Science). 100 μL of diluted sample was added to ELISA plate. Plates were incubated at RT for 1 hour with shaking at 650 rpm. Post incubation, samples were aspirated from wells and the wells were washed 4 times. Diluted antibody (50 μL) was added to plates and incubated at RT for 30 minutes with shaking, followed by aspiration of antibody and 4× washes. Diluted HRP (horseradish peroxidase) solution (50 μL) was added and incubated for 10 minutes, followed by aspiration of the solution and 4× wash steps. After the final wash steps, plates were incubated with 100 μL of TMB (tetramethyl benzidine) substrate for 10 minutes, followed by addition of 100 μL of stop solution and plates were read on Envision plate reader for optical density.

[10] = Example 1C 5 μg IT Day 0, 3, 7, 14, no RT
[11] = RT (5 Gy) Day −1, 0 / Example 1C 5 μg IT Day 0, 3, 7, 14
[12] = RT (5 Gy) Day −2, −1, 0 / Example 1C 5 μg IT Day 0, 3, 7, 14
[13] = CTLA4 + PD-L1 (5 + 5 mg/kg) + 5 μg Example 1C
[14] = Iso Ab (10 mg/kg) + 5 μg Example 1C
[15] = PD1 + PD-L1 (5 + 5 mg/kg) + 5 μg Example 1C

AQ variant of truncated human STING protein, amino acids 155-379, sequence (Q86WV6 155-379 G230A/H232R/R293Q): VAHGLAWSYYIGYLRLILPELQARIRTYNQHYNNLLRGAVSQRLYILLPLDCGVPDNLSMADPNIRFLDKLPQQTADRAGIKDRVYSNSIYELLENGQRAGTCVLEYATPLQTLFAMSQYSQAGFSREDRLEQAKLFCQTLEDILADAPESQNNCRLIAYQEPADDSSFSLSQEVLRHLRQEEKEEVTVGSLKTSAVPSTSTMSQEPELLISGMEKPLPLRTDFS
human STING (G230A-R293Q), sequence (Q86WV6 155-379 G230A/H232R/R293Q): as above
human STING (WT), sequence (Q86WV6 155-379 H232R): as the sequence (Q86WV6 155-379 G230A/H232R/R293Q) above, with A76G, Q139R counted along it
wild-type (WT) truncated human STING protein, amino acids 155-379, sequence (Q86WV6 155-379 H232R): as the sequence (Q86WV6 155-379 G230A/H232R/R293Q) above, with A76G, Q139R counted along it
mouse STING, sequence (Q3TBT3 154-378): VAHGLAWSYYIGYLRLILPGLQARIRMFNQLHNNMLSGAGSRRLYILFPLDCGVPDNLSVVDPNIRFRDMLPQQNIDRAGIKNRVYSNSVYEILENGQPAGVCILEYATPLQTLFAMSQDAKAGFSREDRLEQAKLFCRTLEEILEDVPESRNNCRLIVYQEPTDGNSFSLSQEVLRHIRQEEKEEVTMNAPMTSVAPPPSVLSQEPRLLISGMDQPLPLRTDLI

## Nc1nc2c(ncn2[C@@H]2O[C@@H]3COP(=O)(S)OCCn4c(nc5cncnc54)COP(=O)(S)O[C@@H]2[C@@H]3F)c(=O)[nH]1 (single isomer, unassigned) [Example 1C]
MC-38 tumor [1]; [10]
  #Tumor Free Mice after Re-challenge: 0/0
  #Tumor Free Mice after Treatment: 0/0
MC-38 tumor [1]; [11]
  #Tumor Free Mice after Re-challenge: 3
  #Tumor Free Mice after Treatment: 4
MC-38 tumor [1]; [12]
  #Tumor Free Mice after Re-challenge: 7
  #Tumor Free Mice after Treatment: 8
[2]
  IC50: < 1 µM
[3]
  EC50: < 5 µM
[4]
  ΔTm at 100 µM: > 20 °C
[5]
  IC50: < 1 µM
Mouse STING
  ΔTm at 100 µM: > 20 °C
CT-26 tumor; Day 0
  Number of surviving mice: 10/10
CT-26 tumor; Day 3
  Number of surviving mice: 10/10
CT-26 tumor; Day 7
  Number of surviving mice: 10/10
CT-26 tumor; Day 10
  Number of surviving mice: 10/10
CT-26 tumor; Day 14
  Number of surviving mice: 10/10
CT-26 tumor; Day 17
  Number of surviving mice: 10/10
CT-26 tumor; Day 20
  Number of surviving mice: 10/10
CT-26 tumor; Day 23
  Number of surviving mice: 10/10
CT-26 tumor; Day 35
  Number of surviving mice: 8/10
CT-26 tumor; Rechallenge Day 0
  Number of surviving mice in the re-challenge: 8/8
CT-26 tumor; Rechallenge Day 7
  Number of surviving mice in the re-challenge: 8/8
CT-26 tumor; Rechallenge Day 11
  Number of surviving mice in the re-challenge: 8/8
CT-26 tumor; Rechallenge Day 14
  Number of surviving mice in the re-challenge: 8/8
CT-26 tumor; Rechallenge Day 17
  Number of surviving mice in the re-challenge: 8/8
CT-26 tumor; Rechallenge Day 20
  Number of surviving mice in the re-challenge: 8/8
CT-26 tumor; Rechallenge Day 24
  Number of surviving mice in the re-challenge: 8/8
CT-26 tumor; Rechallenge Day 27
  Number of surviving mice in the re-challenge: 8/8
CT-26 tumor; Rechallenge Day 30
  Number of surviving mice in the re-challenge: 8/8
CT-26 tumor; Rechallenge Day 33
  Number of surviving mice in the re-challenge: 8/8
MC-38 tumor [6]; 5 μg Example 1C + 10 mg/kg Anti-PD-1, Day 0
  Number of surviving mice: 10/10
MC-38 tumor [6]; 5 μg Example 1C + 10 mg/kg Anti-PD-1, Day 3
  Number of surviving mice: 10/10
MC-38 tumor [6]; 5 μg Example 1C + 10 mg/kg Anti-PD-1, Day 6
  Number of surviving mice: 10/10
MC-38 tumor [6]; 5 μg Example 1C + 10 mg/kg Anti-PD-1, Day 10
  Number of surviving mice: 10/10
MC-38 tumor [6]; 5 μg Example 1C + 10 mg/kg Anti-PD-1, Day 14
  Number of surviving mice: 10/10
MC-38 tumor [6]; 5 μg Example 1C + 10 mg/kg Anti-PD-1, Day 17
  Number of surviving mice: 10/10
MC-38 tumor [6]; 5 μg Example 1C + 10 mg/kg Anti-PD-1, Day 21
  Number of surviving mice: 10/10
MC-38 tumor [6]; 5 μg Example 1C + 10 mg/kg Anti-PD-1, Day 24
  Number of surviving mice: 10/10
MC-38 tumor [6]; 5 μg Example 1C + 10 mg/kg Anti-PD-1, Day 27
  Number of surviving mice: 9/10
MC-38 tumor [6]; 5 μg Example 1C + 10 mg/kg Anti-PD-1, Day 30
  Number of surviving mice: 8/10
MC-38 tumor [6]; 5 μg Example 1C + 10 mg/kg Anti-PD-1, Day 34
  Number of surviving mice: 7/10
MC-38 tumor [6]; 5 μg Example 1C intra-tumoral Days 0, 3, 7, Day 0
  Number of surviving mice: 10/10
MC-38 tumor [6]; 5 μg Example 1C intra-tumoral Days 0, 3, 7, Day 3
  Number of surviving mice: 10/10
MC-38 tumor [6]; 5 μg Example 1C intra-tumoral Days 0, 3, 7, Day 6
  Number of surviving mice: 10/10
MC-38 tumor [6]; 5 μg Example 1C intra-tumoral Days 0, 3, 7, Day 10
  Number of surviving mice: 10/10
MC-38 tumor [6]; 5 μg Example 1C intra-tumoral Days 0, 3, 7, Day 14
  Number of surviving mice: 10/10
MC-38 tumor [6]; 5 μg Example 1C intra-tumoral Days 0, 3, 7, Day 17
  Number of surviving mice: 10/10
MC-38 tumor [6]; 5 μg Example 1C intra-tumoral Days 0, 3, 7, Day 21
  Number of surviving mice: 10/10
MC-38 tumor [6]; 5 μg Example 1C intra-tumoral Days 0, 3, 7, Day 24
  Number of surviving mice: 10/10
MC-38 tumor [6]; 5 μg Example 1C intra-tumoral Days 0, 3, 7, Day 27
  Number of surviving mice: 7/10
MC-38 tumor [6]; 5 μg Example 1C intra-tumoral Days 0, 3, 7, Day 30
  Number of surviving mice: 3/10
MC-38 tumor [6]; 5 μg Example 1C intra-tumoral Days 0, 3, 7, Day 34
  Number of surviving mice: 1/10
[7]
  increase in CXCL10: 1000 fold
  increase in IL-6 compared to Control: 300 fold
  increase of IFN-β mRNA compared to ADU-S100: 30 fold
  increase of IFN-β mRNA compared to Control: 4000 fold
Human STING (WT)
  ΔTm at 100 µM: 10.1 to 20 °C
MC-38 tumor [8]; [13]
  #Tumor Free Mice after Re-challenge: 6/6
  #Tumor Free Mice after Treatment: 6/6
MC-38 tumor [8]; [14]
  #Tumor Free Mice after Re-challenge: 1
  #Tumor Free Mice after Treatment: 2
MC-38 tumor [8]; [15]
  #Tumor Free Mice after Re-challenge: 5
  #Tumor Free Mice after Treatment: 8
Human STING (R232H)
  ΔTm at 100 µM: 5 to 10 °C
[9]
  EC50: < 5 µM
